The text below walks through data of ChEMBL document CHEMBL5537128, “Discovery of LWY713 as a potent and selective FLT3 PROTAC degrader with in vivo activity against acute myeloid leukemia” (Eur J Med Chem, 2024).

Molecules are shown by their SMILES. Active and inactive are the calls of the source. No cut-off for these calls is given here.

In test [1] the target is T1, Protein cereblon/Receptor-type tyrosine-protein kinase FLT3 (Homo sapiens, UniProt P36888+Q96SW2). Kind of test: PROTAC activity at CRBN/FLT3 in human MV4-11 cells harboring FLT3-ITD mutation assessed as induction of FLT3 degradation at 10 nM incubated for 24 hrs by immunoblotting analysis relative to control. The class given is cell-based. On the technique in general: In western blotting, separated proteins are transferred to a membrane and probed.
Target sequence in this assay (P36888 27-993 limits assumed): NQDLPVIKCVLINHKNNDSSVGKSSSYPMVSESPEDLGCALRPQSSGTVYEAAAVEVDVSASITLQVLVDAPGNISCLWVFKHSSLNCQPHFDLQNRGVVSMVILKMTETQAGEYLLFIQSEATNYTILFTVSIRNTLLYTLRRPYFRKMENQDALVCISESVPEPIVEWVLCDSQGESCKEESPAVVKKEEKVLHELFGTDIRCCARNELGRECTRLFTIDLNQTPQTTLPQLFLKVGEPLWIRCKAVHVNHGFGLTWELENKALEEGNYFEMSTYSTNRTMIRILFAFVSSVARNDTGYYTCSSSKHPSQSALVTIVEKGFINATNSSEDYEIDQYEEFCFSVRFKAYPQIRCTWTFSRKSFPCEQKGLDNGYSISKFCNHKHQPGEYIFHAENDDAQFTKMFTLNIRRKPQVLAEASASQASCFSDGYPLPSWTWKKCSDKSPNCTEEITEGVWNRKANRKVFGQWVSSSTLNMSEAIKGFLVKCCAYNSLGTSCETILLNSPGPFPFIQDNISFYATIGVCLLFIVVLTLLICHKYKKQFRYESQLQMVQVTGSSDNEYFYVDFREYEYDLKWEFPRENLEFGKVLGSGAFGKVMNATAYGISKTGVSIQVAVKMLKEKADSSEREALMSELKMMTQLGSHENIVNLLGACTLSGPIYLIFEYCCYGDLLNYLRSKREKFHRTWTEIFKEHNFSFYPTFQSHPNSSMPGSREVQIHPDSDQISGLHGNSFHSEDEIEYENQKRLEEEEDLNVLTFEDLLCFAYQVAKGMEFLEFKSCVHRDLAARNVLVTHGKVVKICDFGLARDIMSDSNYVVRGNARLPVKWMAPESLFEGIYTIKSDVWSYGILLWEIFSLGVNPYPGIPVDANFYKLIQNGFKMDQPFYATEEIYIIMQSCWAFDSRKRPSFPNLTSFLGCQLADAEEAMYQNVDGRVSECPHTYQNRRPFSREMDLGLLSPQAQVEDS
Target sequence in this assay (Q96SW2 whole entry partner): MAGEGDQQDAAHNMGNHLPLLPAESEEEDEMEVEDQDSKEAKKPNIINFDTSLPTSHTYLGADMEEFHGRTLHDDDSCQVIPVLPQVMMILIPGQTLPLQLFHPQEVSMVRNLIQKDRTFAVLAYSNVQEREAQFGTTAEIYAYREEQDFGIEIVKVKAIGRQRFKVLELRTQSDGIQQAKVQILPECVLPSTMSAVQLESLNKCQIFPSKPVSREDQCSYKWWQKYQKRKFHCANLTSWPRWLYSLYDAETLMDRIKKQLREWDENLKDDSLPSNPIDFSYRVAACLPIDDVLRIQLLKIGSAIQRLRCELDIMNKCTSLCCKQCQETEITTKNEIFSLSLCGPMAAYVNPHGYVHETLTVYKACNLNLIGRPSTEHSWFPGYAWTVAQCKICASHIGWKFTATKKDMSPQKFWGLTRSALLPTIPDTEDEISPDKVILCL

In test [2] the target is T1, Protein cereblon/Receptor-type tyrosine-protein kinase FLT3. The test can be described thus: PROTAC activity at CRBN/FLT3 in human MV4-11 cells harboring FLT3-ITD mutation assessed as induction of FLT3 degradation incubated for 24 hrs by immunoblotting analysis. The class given is cell-based.
For test [3], the system named is MV4-11. Kind of test: Antiproliferative activity against human MV4-11 cells assessed as inhibition of cell proliferation incubated for 72 hrs by CCK8 assay. The class given is functional, cell-based. As to conditions: MV4-11, 72 h.
The target in test [4] is T1, Protein cereblon/Receptor-type tyrosine-protein kinase FLT3. The test can be described thus: PROTAC activity at CRBN/FLT3 in human MV4-11 cells harboring FLT3-ITD mutation assessed as induction of FLT3 degradation by measuring maximal efficacy incubated for 24 hrs by immunoblotting analysis relative to control. The class given is cell-based.
Target sequence in this assay (P36888 27-993 limits assumed): as the sequence (P36888 27-993 limits assumed) above
Target sequence in this assay (Q96SW2 whole entry partner): as the sequence (Q96SW2 whole entry partner) above
Test [5] concerns MV4-11. Kind of test: Induction of cell cycle arrest at G0/G1 phase in human MV4-11 cells assessed as G2/M phase cells at 2 nM incubated for 24 hrs by PI staining based flow cytometric analysis relative to control. The class given is functional. For orientation: A flow cytometer gives signals particle by particle.
Test [6] concerns MV4-11. The test can be described thus: Induction of cell cycle arrest at G0/G1 phase in human MV4-11 cells assessed as sub-G0/G1 phase cells at 2 nM incubated for 24 hrs by PI staining based flow cytometric analysis relative to control. The class given is functional.
For test [7], the system named is MV4-11. The test can be described thus: Induction of apoptosis in human MV4-11 cells assessed as necrotic cells at 10 nM incubated for 48 hrs by Annexin V/7-AAD staining based flow cytometric analysis relative to control. The class given is functional.
For test [8], the system named is MV4-11. The test can be described thus: Induction of cell cycle arrest at G0/G1 phase in human MV4-11 cells assessed as S phase cells at 0.4 nM incubated for 24 hrs by PI staining based flow cytometric analysis relative to control. The class given is functional.
Test [9] concerns MV4-11. The test can be described thus: Induction of apoptosis in human MV4-11 cells assessed as late apoptotic cells at 2 nM incubated for 48 hrs by Annexin V/7-AAD staining based flow cytometric analysis relative to control. The class given is functional.
Test [10] deals with MV4-11. The test can be described thus: Induction of cell cycle arrest at G0/G1 phase in human MV4-11 cells assessed as S phase cells at 2 nM incubated for 24 hrs by PI staining based flow cytometric analysis relative to control. The class given is functional.
For test [11], the system named is MV4-11. The test can be described thus: Induction of cell cycle arrest at G0/G1 phase in human MV4-11 cells assessed as G0/G1 phase cells at 2 nM incubated for 24 hrs by PI staining based flow cytometric analysis relative to control. The class given is functional.
Test [12] relates to MV4-11. The test can be described thus: Induction of cell cycle arrest at G0/G1 phase in human MV4-11 cells assessed as G2/M phase cells at 0.4 nM incubated for 24 hrs by PI staining based flow cytometric analysis relative to control. The class given is functional.
In test [13] the test system is MV4-11. Kind of test: Antitumor activity against human MV4-11 cells xenografted in NOD/SCID mouse assessed as reduction in tumor volume at 6 mg/kg, po administered once a day for 21 days. The class given is functional, organism-based. The settings on record: time 21.0 day.
Test [14] concerns MV4-11. Kind of test: Induction of cell cycle arrest at G0/G1 phase in human MV4-11 cells assessed as G0/G1 phase cells at 0.4 nM incubated for 24 hrs by PI staining based flow cytometric analysis relative to control. The class given is functional.
The subject of test [15] is MV4-11. The test can be described thus: Inhibition of PI3K/AKT signaling pathway in human MV4-11 cells assessed as reduction in phosphorylated AKT level at 0.08 to 50 nM incubated for 24 hrs by immunoblotting analysis. The class given is cell-based. As to conditions: dose 0.08-50 nM.
Test [16] deals with MV4-11. The test can be described thus: Induction of apoptosis in human MV4-11 cells assessed as late apoptotic cells at 10 nM incubated for 48 hrs by Annexin V/7-AAD staining based flow cytometric analysis relative to control. The class given is functional.
Test [17] deals with MV4-11. Kind of test: Induction of cell cycle arrest at G0/G1 phase in human MV4-11 cells assessed as sub-G0/G1 phase cells at 0.4 nM incubated for 24 hrs by PI staining based flow cytometric analysis relative to control. The class given is functional.
In test [18] the test system is MV4-11. The test can be described thus: Induction of apoptosis in human MV4-11 cells assessed as early apoptotic cells at 2 nM incubated for 48 hrs by Annexin V/7-AAD staining based flow cytometric analysis relative to control. The class given is functional.
Test [19] has as its system MV4-11. Kind of test: Induction of apoptosis in human MV4-11 cells assessed as early apoptotic cells at 10 nM incubated for 48 hrs by Annexin V/7-AAD staining based flow cytometric analysis relative to control. The class given is functional.

For the molecule `CCc1nc(C(N)=O)c(Nc2ccc(N3CCC(N4CCN(C(=O)CCCCCCCNc5ccc6c(c5)C(=O)N(C5CCC(=O)NC5=O)C6=O)CC4)CC3)c(OC)c2)nc1NC1CCOCC1` (configuration not stated), the Activity in [1] worked out at 40%. On the same count and under the same terms, to `CCc1nc(C(N)=O)c(Nc2ccc(N3CCC(N4CCN(C(=O)CCCCCCCCCOc5ccc6c(c5)C(=O)N(C5CCC(=O)NC5=O)C6=O)CC4)CC3)c(OC)c2)nc1NC1CCOCC1` (configuration not stated) belongs 0%.

With `CCc1nc(C(N)=O)c(Nc2ccc(N3CCC(N4CCN(C(=O)CCCOc5ccc6c(c5)C(=O)N(C5CCC(=O)NC5=O)C6=O)CC4)CC3)c(OC)c2)nc1NC1CCOCC1` (configuration not stated), in test [1], the Activity worked out at 0%.

Consider `CCc1nc(C(N)=O)c(Nc2ccc(N3CCC(N4CCN(C(=O)CCCNc5ccc6c(c5)C(=O)N(C5CCC(=O)NC5=O)C6=O)CC4)CC3)c(OC)c2)nc1NC1CCOCC1` (configuration not stated), for which the Activity in test [1] came to 9%. Consider `CCc1nc(C(N)=O)c(Nc2ccc(N3CCC(N4CCN(C(=O)CCCCCCCCCNc5cccc6c5C(=O)N(C5CCC(=O)NC5=O)C6=O)CC4)CC3)c(OC)c2)nc1NC1CCOCC1` (configuration not stated), for which, in test [1], the Activity is 0%. For `CCc1nc(C(N)=O)c(Nc2ccc(N3CCC(N4CCN(c5ccc6c(c5)C(=O)N(C5CCC(=O)NC5=O)C6=O)CC4)CC3)c(OC)c2)nc1NC1CCOCC1` (configuration not stated), the Activity in test [1] was determined as 0%.

With `CCc1nc(C(N)=O)c(Nc2ccc(N3CCC(N4CCN(C(=O)CCCCCOc5ccc6c(c5)C(=O)N(C5CCC(=O)NC5=O)C6=O)CC4)CC3)c(OC)c2)nc1NC1CCOCC1` (configuration not stated), the Activity in test [1] was found to be 32%. As a reminder, the DC50 is the concentration giving 50% degradation. Regarding `CCc1nc(C(N)=O)c(Nc2ccc(N3CCC(N4CCN(C(=O)COc5cccc6c5C(=O)N(C5CCC(=O)NC5=O)C6)CC4)CC3)c(OC)c2)nc1NC1CCOCC1` (configuration not stated), in test [2], the half-maximal degradation concentration (DC50) came to 1.01 nM.

As for `CCc1nc(C(N)=O)c(Nc2ccc(N3CCC(N4CCN(C(=O)COc5ccc6c(c5)C(=O)N(C5CCC(=O)NC5=O)C6=O)CC4)CC3)c(OC)c2)nc1NC1CCOCC1` (configuration not stated), the Activity in test [1] was found to be 0%. On the same count and under the same terms, to `CCc1nc(C(N)=O)c(Nc2ccc(N3CCC(N4CCN(C(=O)CCCCCOc5cccc6c5C(=O)N(C5CCC(=O)NC5=O)C6=O)CC4)CC3)c(OC)c2)nc1NC1CCOCC1` (configuration not stated) belongs 36%.

As for `CCc1nc(C(N)=O)c(Nc2ccc(N3CCC(N4CCN(C(=O)CCCCCNc5ccc6c(c5)C(=O)N(C5CCC(=O)NC5=O)C6=O)CC4)CC3)c(OC)c2)nc1NC1CCOCC1` (configuration not stated), in test [1], the Activity was found to be 52%. For the molecule `CCc1nc(C(N)=O)c(Nc2ccc(N3CCC(N4CCN(C(=O)CCCCCCCOc5ccc6c(c5)C(=O)N(C5CCC(=O)NC5=O)C6=O)CC4)CC3)c(OC)c2)nc1NC1CCOCC1` (configuration not stated), in [1], the Activity is 6%.

In the case of `CCc1nc(C(N)=O)c(Nc2ccc(N3CCC(N4CCN(C(=O)CNc5ccc6c(c5)C(=O)N(C5CCC(=O)NC5=O)C6=O)CC4)CC3)c(OC)c2)nc1NC1CCOCC1` (configuration not stated), the Activity in test [1] amounted to 52%. Still for that read-out and setting: as for `CCc1nc(C(N)=O)c(Nc2ccc(N3CCC(N4CCN(C(=O)CCCCCCCOc5cccc6c5C(=O)N(C5CCC(=O)NC5=O)C6=O)CC4)CC3)c(OC)c2)nc1NC1CCOCC1` (configuration not stated), the figure is 29%; as for `CCc1nc(C(N)=O)c(Nc2ccc(N3CCC(N4CCN(C(=O)CCCNc5cccc6c5C(=O)N(C5CCC(=O)NC5=O)C6=O)CC4)CC3)c(OC)c2)nc1NC1CCOCC1` (configuration not stated), 34%. As usually defined, the IC50 is the point on the concentration scale where inhibition reaches its midpoint. For `CCc1nc(C(N)=O)c(Nc2ccc(N3CCC(N4CCN(C(=O)COc5cccc6c5CN(C5CCC(=O)N(C)C5=O)C6=O)CC4)CC3)c(OC)c2)nc1NC1CCOCC1` (configuration not stated), the IC50 in test [3] amounted to 22.9 nM. The half-maximal degradation concentration (DC50) in test [2] is greater than 1000 nM. By Emax is commonly meant the size of the effect at its maximum, as opposed to the concentration needed. As for `CCc1nc(C(N)=O)c(Nc2ccc(N3CCC(N4CCN(C(=O)CCCCCNc5cccc6c5C(=O)N(C5CCC(=O)NC5=O)C6=O)CC4)CC3)c(OC)c2)nc1NC1CCOCC1` (configuration not stated), the DC50 in test [2] was determined as 2.26 nM. The Activity in [1] was determined as 66%. The maximal effect (Emax) in test [4] is 77.2%. For `CCc1nc(C(N)=O)c(Nc2ccc(N3CCC(N4CCN(C)CC4)CC3)c(OC)c2)nc1NC1CCOCC1` [GILTERITINIB], the Activity came to 18.5% in test [5]; 1.9% in [6]; 2.3% in [7]; 10.4% in test [8]; 6.8% in test [9]; 6.9% in [10]. Also, the Activity in [11] is given as 72.4%; in [12], 21.5%; in test [14] it was 66.3%; in [16], 19.6%; in test [17], 1.6%; in test [18], 3%. Moreover, the Activity in test [19] worked out at 5.5%. Also, the 50% inhibitory concentration (IC50) in test [3] was determined as 6.89 nM. For the same molecule, the outcome in [13] was Active. For the same molecule, in test [15], the inhibition entry is “inactive”.

As for `CCc1nc(C(N)=O)c(Nc2ccc(N3CCC(N4CCN(C(=O)CNc5cccc6c5C(=O)N(C5CCC(=O)NC5=O)C6=O)CC4)CC3)c(OC)c2)nc1NC1CCOCC1` (configuration not stated), the half-maximal degradation concentration (DC50) in test [2] came to 0.98 nM. The Activity in test [1] is 60%. Also, in test [4], the Emax stood at 85%.

With `CCc1nc(C(N)=O)c(Nc2ccc(N3CCC(N4CCN(c5cccc6c5C(=O)N(C5CCC(=O)NC5=O)C6=O)CC4)CC3)c(OC)c2)nc1NC1CCOCC1` (configuration not stated), the Activity in test [1] came to 0%. Same read-out and setting: as for `CCc1nc(C(N)=O)c(Nc2ccc(N3CCC(N4CCN(C(=O)CCCCCCCCCNc5ccc6c(c5)C(=O)N(C5CCC(=O)NC5=O)C6=O)CC4)CC3)c(OC)c2)nc1NC1CCOCC1` (configuration not stated), the figure is 0%; as for `CCc1nc(C(N)=O)c(Nc2ccc(N3CCC(N4CCN(C(=O)CCCOc5cccc6c5C(=O)N(C5CCC(=O)NC5=O)C6=O)CC4)CC3)c(OC)c2)nc1NC1CCOCC1` (configuration not stated), 30%.

For the molecule `CCc1nc(C(N)=O)c(Nc2ccc(N3CCC(N4CCN(C(=O)COc5cccc6c5C(=O)N(C5CCC(=O)NC5=O)C6=O)CC4)CC3)c(OC)c2)nc1NC1CCOCC1` (configuration not stated), the half-maximal degradation concentration (DC50) in test [2] came out at 1.26 nM. In addition, in test [1], the Activity came to 58%. In addition, the maximum response (Emax) in [4] is 86.8%.

Take `CCc1nc(C(N)=O)c(Nc2ccc(N3CCC(N4CCN(C(=O)CCCCCCCCCOc5cccc6c5C(=O)N(C5CCC(=O)NC5=O)C6=O)CC4)CC3)c(OC)c2)nc1NC1CCOCC1` (configuration not stated): the Activity in test [1] was 0%. Consider `CCc1nc(C(N)=O)c(Nc2ccc(N3CCC(N4CCN(C(=O)CCCCCCCNc5cccc6c5C(=O)N(C5CCC(=O)NC5=O)C6=O)CC4)CC3)c(OC)c2)nc1NC1CCOCC1` (configuration not stated), for which, in test [1], the Activity is 50%.
